Laboratory results published in ChEMBL document CHEMBL1201862, “PubChem BioAssay data set” (2004).
Activity calls are given as the source filed them.

Columns and labels:
[1] = target: T1, Short transient receptor potential channel 4 (Mus musculus, UniProt Q9QUQ5); test: mouse TRPC4 channel activators, dose response, cell-based, HEK293 TRPC4/mu-opioid, Fluo-4 calcium (AID 434937); format: functional
T1 sequence (Q9QUQ5 whole entry): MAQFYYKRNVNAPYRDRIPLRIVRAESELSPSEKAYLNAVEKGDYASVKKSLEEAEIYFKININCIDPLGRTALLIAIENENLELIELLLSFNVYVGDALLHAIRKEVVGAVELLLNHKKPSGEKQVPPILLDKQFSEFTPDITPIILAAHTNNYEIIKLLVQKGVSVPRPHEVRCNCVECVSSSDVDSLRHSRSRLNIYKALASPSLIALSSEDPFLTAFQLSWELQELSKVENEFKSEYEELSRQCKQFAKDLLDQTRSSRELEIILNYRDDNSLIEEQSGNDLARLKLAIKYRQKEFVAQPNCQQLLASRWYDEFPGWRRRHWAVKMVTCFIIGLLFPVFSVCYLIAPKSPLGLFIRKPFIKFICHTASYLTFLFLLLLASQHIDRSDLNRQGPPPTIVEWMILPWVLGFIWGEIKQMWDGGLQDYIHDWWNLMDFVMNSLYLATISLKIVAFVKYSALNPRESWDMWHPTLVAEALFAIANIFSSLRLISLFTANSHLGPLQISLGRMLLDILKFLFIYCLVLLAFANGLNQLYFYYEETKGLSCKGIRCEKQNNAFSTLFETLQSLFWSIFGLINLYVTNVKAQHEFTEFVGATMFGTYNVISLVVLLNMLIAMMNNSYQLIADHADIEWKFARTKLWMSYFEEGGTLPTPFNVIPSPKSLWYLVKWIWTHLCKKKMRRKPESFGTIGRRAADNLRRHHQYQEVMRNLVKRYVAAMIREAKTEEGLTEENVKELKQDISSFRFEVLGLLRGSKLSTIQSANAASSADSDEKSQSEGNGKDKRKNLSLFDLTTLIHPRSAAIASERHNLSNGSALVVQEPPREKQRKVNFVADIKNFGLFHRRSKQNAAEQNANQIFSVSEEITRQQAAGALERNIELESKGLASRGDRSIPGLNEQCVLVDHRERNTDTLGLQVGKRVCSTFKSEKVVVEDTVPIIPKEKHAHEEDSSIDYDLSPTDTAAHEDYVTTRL

Cytochrome P450 3A4 = Cytochrome P450 3A4 (Homo sapiens, UniProt P08684); conditions: Potency;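 also: confirmatory qHTS run detecting inhibitors and substrates of CYP3A4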
[2] = target: T2, Zinc finger protein mex-5 (Caenorhabditis elegans, UniProt Q9XUB2); test: MEX-5/TCR-2 RNA interaction inhibitors, dose response, biochemical, C. elegans, fluorescence polarization (AID 1960)
T2 sequence (Q9XUB2 whole entry): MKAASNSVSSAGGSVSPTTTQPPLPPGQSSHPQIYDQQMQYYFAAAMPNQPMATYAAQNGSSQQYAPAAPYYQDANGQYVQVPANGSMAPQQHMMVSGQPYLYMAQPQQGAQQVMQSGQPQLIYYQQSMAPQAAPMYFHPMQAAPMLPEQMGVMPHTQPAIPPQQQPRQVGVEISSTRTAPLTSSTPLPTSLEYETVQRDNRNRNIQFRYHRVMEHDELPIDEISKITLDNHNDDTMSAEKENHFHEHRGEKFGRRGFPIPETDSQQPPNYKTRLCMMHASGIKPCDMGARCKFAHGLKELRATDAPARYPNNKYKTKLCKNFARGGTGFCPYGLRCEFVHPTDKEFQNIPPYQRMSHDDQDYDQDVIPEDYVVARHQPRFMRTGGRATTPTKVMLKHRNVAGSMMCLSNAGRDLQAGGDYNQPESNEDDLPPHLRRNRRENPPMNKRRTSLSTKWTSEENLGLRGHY

Caspase-6 = target: T3, Caspase-6 (Homo sapiens, UniProt P55212); test: human caspase-6 inhibitors, dose response, biochemical, VEID-R110 fluorescence, cherry-pick (AID 720632)
T3 sequence (P55212 whole entry): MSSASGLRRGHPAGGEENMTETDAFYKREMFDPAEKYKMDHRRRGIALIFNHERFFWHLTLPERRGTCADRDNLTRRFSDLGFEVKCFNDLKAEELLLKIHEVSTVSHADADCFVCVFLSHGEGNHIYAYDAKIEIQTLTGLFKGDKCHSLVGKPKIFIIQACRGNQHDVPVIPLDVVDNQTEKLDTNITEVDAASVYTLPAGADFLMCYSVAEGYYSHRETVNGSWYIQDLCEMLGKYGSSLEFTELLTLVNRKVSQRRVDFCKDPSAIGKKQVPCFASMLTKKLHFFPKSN

[3] = target: T4, RNA-binding protein pos-1 (Caenorhabditis elegans, UniProt G5EF15); test: inhibitors of POS-1/mex-3 RNA binding, dose response, biochemical, fluorescence polarization (AID 1964);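 also: purified POS-1 fused to maltose binding protein made in E. coli; potency of compounds blocking POS-1 binding to fluorescent RNA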
T4 sequence (G5EF15 whole entry): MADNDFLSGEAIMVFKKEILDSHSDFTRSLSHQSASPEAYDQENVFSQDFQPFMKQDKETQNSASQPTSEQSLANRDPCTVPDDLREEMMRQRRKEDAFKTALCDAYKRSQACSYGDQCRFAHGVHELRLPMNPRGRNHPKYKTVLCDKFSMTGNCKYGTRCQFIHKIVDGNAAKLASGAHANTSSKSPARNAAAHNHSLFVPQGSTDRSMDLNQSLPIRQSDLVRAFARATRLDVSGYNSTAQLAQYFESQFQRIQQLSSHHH

[4] = HEp-2 cell cytotoxicity, dose response, cytotoxicity control for RSV inhibitor project, HTS (AID 2410); format: functional; conditions: human respiratory syncytial virus
Genome polyprotein = Genome polyprotein (dengue virus type 2, UniProt P29990); test: Dengue-2 NS5 methyltransferase inhibitors, primary screen, biochemical, confirmation dose response (AID 588689); format: functional
[5] = Luminescence Cell-Based Dose Response HTS to Identify Activators of Luciferase Translation or Activity in H4 […] Cells. [Related pubchem assays: 1829 (Project Summary), 1814 (Primary HTS)]; format: functional
[6] = Luminescence Cell-Based Dose Confirmation HTS to Identify Activators of 5'UTR Stem-Loop Driven Alpha-Synuclein mRNA Translation in H4 Neuroglioblastoma Cells. [Related pubchem assays: 1829 (Project Summary), 1814 (Primary HTS)]; format: functional
H4 = test: Luminescence Cell-Based Dose Response HTS to Identify Activators of 5'UTR Stem-Loop Driven Prion Protein mRNA Translation in H4 Neuroglioblastoma Cells. [Related pubchem assays: 1829 (Project Summary), 1814 (Primary HTS)]; format: functional; conditions: Homo sapiens

Sequence of Cytochrome P450 3A4 (P08684 whole entry): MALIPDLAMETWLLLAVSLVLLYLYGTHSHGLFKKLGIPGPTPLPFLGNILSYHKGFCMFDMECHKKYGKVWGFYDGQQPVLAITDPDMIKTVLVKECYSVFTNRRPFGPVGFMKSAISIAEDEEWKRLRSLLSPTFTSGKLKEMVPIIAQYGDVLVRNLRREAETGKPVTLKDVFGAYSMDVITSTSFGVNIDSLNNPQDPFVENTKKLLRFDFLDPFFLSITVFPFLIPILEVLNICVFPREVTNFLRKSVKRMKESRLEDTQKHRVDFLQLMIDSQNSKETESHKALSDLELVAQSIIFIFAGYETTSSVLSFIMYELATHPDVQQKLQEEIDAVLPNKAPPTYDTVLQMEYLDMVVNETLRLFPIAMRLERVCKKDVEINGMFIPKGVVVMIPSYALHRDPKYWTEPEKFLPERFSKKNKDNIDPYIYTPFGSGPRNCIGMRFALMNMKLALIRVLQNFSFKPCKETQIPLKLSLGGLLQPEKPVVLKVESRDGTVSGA
Sequence of Genome polyprotein (P29990 2492-3391 limits assumed): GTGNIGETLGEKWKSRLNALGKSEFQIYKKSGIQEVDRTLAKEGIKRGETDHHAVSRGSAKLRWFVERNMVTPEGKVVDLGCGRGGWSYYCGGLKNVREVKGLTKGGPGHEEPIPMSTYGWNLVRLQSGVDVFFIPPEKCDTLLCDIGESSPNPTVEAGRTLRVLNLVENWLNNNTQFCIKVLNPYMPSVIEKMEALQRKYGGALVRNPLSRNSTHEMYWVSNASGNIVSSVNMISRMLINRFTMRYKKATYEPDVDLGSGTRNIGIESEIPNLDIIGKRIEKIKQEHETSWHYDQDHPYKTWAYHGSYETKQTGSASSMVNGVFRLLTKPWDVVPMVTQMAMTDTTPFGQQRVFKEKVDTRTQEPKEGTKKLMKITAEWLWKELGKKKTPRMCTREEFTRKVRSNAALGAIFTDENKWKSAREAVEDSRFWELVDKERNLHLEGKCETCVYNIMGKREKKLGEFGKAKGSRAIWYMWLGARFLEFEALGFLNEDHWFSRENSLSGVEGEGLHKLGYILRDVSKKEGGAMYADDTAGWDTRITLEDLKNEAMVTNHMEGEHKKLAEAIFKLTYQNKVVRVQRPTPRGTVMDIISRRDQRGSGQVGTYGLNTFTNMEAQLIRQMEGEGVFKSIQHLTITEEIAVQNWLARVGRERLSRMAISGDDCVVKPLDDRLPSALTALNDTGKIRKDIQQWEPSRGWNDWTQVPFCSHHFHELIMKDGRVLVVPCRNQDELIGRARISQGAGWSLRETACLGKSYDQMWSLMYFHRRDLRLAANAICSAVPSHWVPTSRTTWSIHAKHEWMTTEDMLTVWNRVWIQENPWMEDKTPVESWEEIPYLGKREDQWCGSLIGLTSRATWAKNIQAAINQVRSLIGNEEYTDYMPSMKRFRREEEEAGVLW

COc1cccc(C(=O)OC2CCCN(C)C2)c1 (stereo not drawn)
EC50 [1]: 0.376 µM (active)

O=C1C=C2C=CC3C[C@@]2(O1)C1CCCCN31 (stereo partly drawn)
AC50 (Cytochrome P450 3A4): 31.6 µM (inconclusive)

O=C(O)CCC(=O)NCc1ccc2[nH]c3c(c2c1)CCCC3
EC50 [2]: 112 µM (active) | AC50 (Caspase-6): 25.6 µM (active) | EC50 [3]: 82.1 µM (active)

Cc1csc2c(N3CCN(C(=O)Nc4ccccc4)CC3)ncnc12
EC50 [1]: 1.68 µM (active)

Cc1ccc(NC(=S)NC2CC3CCC(C2)N3Cc2ccco2)c(C)c1 (stereo not drawn)
EC50 [1]: 5.96 µM (active)

Cc1ccc2c(c1)COc1c3ccc(C(=O)N[C@@H](C)CO)cc3nn1-2
CC50 [4]: > 50 µM (active) | IC50 (cells): 41.5 µM (active)

CCN(CC)C1=N/C(=C\c2ccc(OC)cc2)C(=O)N1c1ccccc1
CC50 [4]: 9.86 µM (active) | IC50 (cells): 4.49 µM (active)

CC1=NN(c2ccc(Br)cc2)C(=O)/C1=C/c1ccc(-c2ccccc2C(=O)O)o1
IC50 (Genome polyprotein): 30 µM (active)

COc1ccc(-c2ccccc2C2NC(C(=O)O)CCC2C)cc1 (stereo not drawn)
AC50 (Cytochrome P450 3A4): 5.01 µM (inconclusive)

c1ccc(Cn2nnc3c(N4CCCCCC4)ncnc32)cc1
CC50 [4]: 17 µM (active) | IC50 (cells): 49.5 µM (active)

Cc1c(N=C=O)cccc1N=C=O
AC50 (Cytochrome P450 3A4): 15.8 µM (inconclusive)

c1ccc(-c2ccc(CN3C[C@@H]4C(c5ccccc5)C5(c6cccnc6)CC4(C5)[C@H]3c3ccccc3)cc2)cc1 (stereo partly drawn)
AC50 (Cytochrome P450 3A4): 15.8 µM (inconclusive)

CCOc1cc(OCC)c(C(C)=O)cc1OCC
AC50 (Cytochrome P450 3A4): 15.8 µM (inconclusive)

COc1cc(/C=C2/C(=N)N3C(c4ccccc4)=CSC3=NC2=O)ccc1OCC(=O)O
EC50 [5]: 12.7 µM (active) | IC50 (Genome polyprotein): > 100 µM (active) | EC50 [6]: 19.6 µM (active) | EC50 (H4): > 120 µM (not active)

COCCn1nnnc1C(c1cc2ccc(OC)cc2nc1O)N1CCN(C2CCCCC2)CC1 (stereo not drawn)
EC50 [1]: 3.76 µM (active)
